# Test results from patent US20070060599A1, “Crystalline forms of [1S-(1alpha, 3alpha, 4beta)]-2-amino-1,9-dihydro-9-[4-hydroxy-3-(hydroxymethyl)-2-methylenecyclopentyl]-6H-purin-6-one” (priority 2005, published 2007).
# Test system: hepatitis B virus infection
# Test: once daily administration of low dose entecavir pharmaceutical compositions to treat hepatitis B virus infection
# Type: in vivo, human
# Protocol: In a yet another aspect, the invention provides pharmaceutical compositions comprising Form N-2 and/or Form IP.3-4 crystals of [1S-(1α,3α,4β)]-2-amino-1,9-dihydro-9-[4-hydroxy-3-(hydroxymethyl)-2-methylenecyclopentyl]-6H-purin-6-one and at least one pharmaceutically acceptable carrier or excipient. The pharmaceutical compositions may contain a low dose of from about 0.001 mg to about 25 mg of the active drug ingredient for once daily administration to treat hepatitis B virus infection in an adult human patient or a pediatric patient. Preferred pharmaceutical compositions contain from about 0.01 mg to about 10 mg of the active drug ingredient and most preferred pharmaceutical compositions contain from about 0.01 to about 5 mg of the active drug ingredient. Such preferred and most preferred pharmaceutical compositions are also administered once daily to treat hepatitis B virus infection in an adult or a pediatric patient.
compound,measurement,setting,value
"C=C1[C@H](CO)[C@@H](O)C[C@@H]1n1cnc2c(=O)[nH]c(N)nc21 [entecavir, [1S-(1α,3α,4β)]-2-amino-1,9-dihydro-9-[4-hydroxy-3-(hydroxymethyl)-2-methylenecyclopentyl]-6H-purin-6-one monohydrate]",effectiveness in treating hepatitis B virus infection,,effective
same,undesirable side effects,"compared with the high dose regimen of U.S. Pat. No. 5,206,244",without undesirable side effects
